From ChEMBL document CHEMBL4507263, “Data for DCP probe BAY-474” (2021)

Legend:
[1] = target: Estrogen receptor (Homo sapiens) (UniProt P03372); details: Compound concentration 10.0 uM
[2] = target: Mitogen-activated protein kinase 8 (Homo sapiens) (UniProt P45983); experiment: JNK1alpha1 (h) Millipore kinase activity assay; details: Compound concentration 1.0 uM
[3] = target: Beta-1 adrenergic receptor (Homo sapiens) (UniProt P08588); details: Compound concentration 10.0 uM
Mus musculus = organism: Mus musculus; experiment: Inhibition of Phorbol Ester at 10 µM in the Eurofins-Panlabs radioligand binding assay (Eurofins_assay_264500); design: ligand concentration 3 nM; details: Compound concentration 10.0 uM
[4] = target: Mitogen-activated protein kinase 1 (Homo sapiens) (UniProt P28482); experiment: MAPK2( h) Millipore kinase activity assay; details: Compound concentration 1.0 uM
[5] = target: Serine/threonine-protein kinase 10 (Homo sapiens) (UniProt O94804); experiment: LOK (h) Millipore kinase activity assay; details: Compound concentration 1.0 uM
[6] = target: Histamine H3 receptor (Homo sapiens) (UniProt Q9Y5N1); details: Compound concentration 10.0 uM
[7] = target: Calcium/calmodulin-dependent protein kinase type 1 (Homo sapiens) (UniProt Q14012); experiment: CaMKI (h) Millipore kinase activity assay; details: Compound concentration 1.0 uM
[8] = target: Focal adhesion kinase 1 (Homo sapiens) (UniProt Q05397); experiment: FAK (h) Millipore kinase activity assay; details: Compound concentration 1.0 uM
[9] = target: Dual specificity mitogen-activated protein kinase kinase 7 (Homo sapiens) (UniProt O14733); experiment: MKK7beta (h) Millipore kinase activity assay; details: Compound concentration 1.0 uM
[10] = target: Glutamate receptor ionotropic, kainate (Rattus norvegicus) (UniProt P22756+Q01812+P42260+P42264+Q63273); experiment: Inhibition of Glutamate, Kainate at 10 µM in the Eurofins-Panlabs radioligand binding assay (Eurofins_assay_232700); details: Compound concentration 10.0 uM
[11] = target: Insulin receptor-related protein (Homo sapiens) (UniProt P14616); experiment: IRR (h) Millipore kinase activity assay; details: Compound concentration 1.0 uM
[12] = target: Serine/threonine-protein kinase 24 (Homo sapiens) (UniProt Q9Y6E0); experiment: MST3 (h) Millipore kinase activity assay; details: Compound concentration 1.0 uM
[13] = target: Dual specificity tyrosine-phosphorylation-regulated kinase 1A (Homo sapiens) (UniProt Q13627); details: Compound concentration 1000.0 nM
[14] = target: Receptor-interacting serine/threonine-protein kinase 1 (Homo sapiens) (UniProt Q13546); details: Compound concentration 1000.0 nM
[15] = target: BMP-2-inducible protein kinase (Homo sapiens) (UniProt Q9NSY1); details: Compound concentration 1000.0 nM
[16] = target: MAP/microtubule affinity-regulating kinase 3 (Homo sapiens) (UniProt P27448); details: Compound concentration 1000.0 nM
[17] = target: Cyclin-dependent kinase 18 (Homo sapiens) (UniProt Q07002); details: Compound concentration 1000.0 nM
[18] = target: Ribosomal protein S6 kinase beta-1 (Homo sapiens) (UniProt P23443); details: Compound concentration 1000.0 nM
[19] = target: Cyclin-dependent kinase 9 (Homo sapiens) (UniProt P50750); details: Compound concentration 1000.0 nM
[20] = target: High affinity nerve growth factor receptor (Homo sapiens) (UniProt P04629); details: Compound concentration 1000.0 nM
[21] = target: Ephrin type-A receptor 8 (Homo sapiens) (UniProt P29322); details: Compound concentration 1000.0 nM
[22] = target: Mitogen-activated protein kinase 6 (Homo sapiens) (UniProt Q16659); details: Compound concentration 1000.0 nM
[23] = target: Tyrosine-protein kinase receptor Tie-1 (Homo sapiens) (UniProt P35590); details: Compound concentration 1000.0 nM
[24] = target: MAP kinase-interacting serine/threonine-protein kinase 2 (Homo sapiens) (UniProt Q9HBH9); details: Compound concentration 1000.0 nM
[25] = target: Mitogen-activated protein kinase kinase kinase 1 (Homo sapiens) (UniProt Q13233); details: Compound concentration 1000.0 nM
[26] = target: Proto-oncogene tyrosine-protein kinase Src (Homo sapiens) (UniProt P12931); details: Compound concentration 1000.0 nM
[27] = target: Ephrin type-A receptor 3 (Homo sapiens) (UniProt P29320); details: Compound concentration 1000.0 nM
[28] = target: Cyclin-dependent kinase 4 (Homo sapiens) (UniProt P11802); details: Compound concentration 1000.0 nM
[29] = target: Serine/threonine-protein kinase Nek9 (Homo sapiens) (UniProt Q8TD19); details: Compound concentration 1000.0 nM
[30] = target: Serine/threonine-protein kinase Nek1 (Homo sapiens) (UniProt Q96PY6); details: Compound concentration 1000.0 nM
[31] = target: Serine/threonine-protein kinase MRCK alpha (Homo sapiens) (UniProt Q5VT25); details: Compound concentration 1000.0 nM
[32] = target: Cyclin-dependent kinase-like 2 (Homo sapiens) (UniProt Q92772); details: Compound concentration 1000.0 nM
[33] = target: SRSF protein kinase 1 (Homo sapiens) (UniProt Q96SB4); details: Compound concentration 1000.0 nM
[34] = target: Ephrin type-A receptor 4 (Homo sapiens) (UniProt P54764); details: Compound concentration 1000.0 nM
[35] = target: Serine/threonine-protein kinase DCLK2 (Homo sapiens) (UniProt Q8N568); details: Compound concentration 1000.0 nM
[36] = target: Rho-associated protein kinase 2 (Homo sapiens) (UniProt O75116); details: Compound concentration 1000.0 nM
[37] = target: Mitogen-activated protein kinase 1 (Homo sapiens) (UniProt P28482); details: Compound concentration 1000.0 nM
[38] = target: Aurora kinase A (Homo sapiens) (UniProt O14965); details: Compound concentration 1000.0 nM
[39] = target: Dual specificity protein kinase CLK3 (Homo sapiens) (UniProt P49761); details: Compound concentration 1000.0 nM
[40] = target: Serine/threonine-protein kinase SBK1 (Homo sapiens) (UniProt Q52WX2); details: Compound concentration 1000.0 nM
[41] = system: Fibroblast growth factor receptor 3 (Homo sapiens), P22607 [G697C]; details: Compound concentration 1000.0 nM
[42] = system: Epidermal growth factor receptor (Homo sapiens), P00533 [UNDEFINED MUTATION]; details: Compound concentration 1000.0 nM
[43] = target: Casein kinase I isoform alpha (Homo sapiens) (UniProt P48729); details: Compound concentration 1000.0 nM
[44] = target: Mast/stem cell growth factor receptor Kit (Homo sapiens) (UniProt P10721); details: Compound concentration 1000.0 nM

Sequence of Mitogen-activated protein kinase 1 (Homo sapiens) (P28482 whole entry): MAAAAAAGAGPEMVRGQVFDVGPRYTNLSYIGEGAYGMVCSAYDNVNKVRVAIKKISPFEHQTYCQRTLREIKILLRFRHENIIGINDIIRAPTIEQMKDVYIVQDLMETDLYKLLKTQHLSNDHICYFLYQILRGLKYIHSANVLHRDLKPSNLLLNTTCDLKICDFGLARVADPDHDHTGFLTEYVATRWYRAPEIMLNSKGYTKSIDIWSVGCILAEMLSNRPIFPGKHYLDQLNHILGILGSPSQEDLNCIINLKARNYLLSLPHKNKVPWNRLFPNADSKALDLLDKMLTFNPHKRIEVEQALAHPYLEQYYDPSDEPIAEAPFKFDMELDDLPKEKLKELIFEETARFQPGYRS
Sequence of Rho-associated protein kinase 2 (Homo sapiens) (O75116 whole entry, looked up): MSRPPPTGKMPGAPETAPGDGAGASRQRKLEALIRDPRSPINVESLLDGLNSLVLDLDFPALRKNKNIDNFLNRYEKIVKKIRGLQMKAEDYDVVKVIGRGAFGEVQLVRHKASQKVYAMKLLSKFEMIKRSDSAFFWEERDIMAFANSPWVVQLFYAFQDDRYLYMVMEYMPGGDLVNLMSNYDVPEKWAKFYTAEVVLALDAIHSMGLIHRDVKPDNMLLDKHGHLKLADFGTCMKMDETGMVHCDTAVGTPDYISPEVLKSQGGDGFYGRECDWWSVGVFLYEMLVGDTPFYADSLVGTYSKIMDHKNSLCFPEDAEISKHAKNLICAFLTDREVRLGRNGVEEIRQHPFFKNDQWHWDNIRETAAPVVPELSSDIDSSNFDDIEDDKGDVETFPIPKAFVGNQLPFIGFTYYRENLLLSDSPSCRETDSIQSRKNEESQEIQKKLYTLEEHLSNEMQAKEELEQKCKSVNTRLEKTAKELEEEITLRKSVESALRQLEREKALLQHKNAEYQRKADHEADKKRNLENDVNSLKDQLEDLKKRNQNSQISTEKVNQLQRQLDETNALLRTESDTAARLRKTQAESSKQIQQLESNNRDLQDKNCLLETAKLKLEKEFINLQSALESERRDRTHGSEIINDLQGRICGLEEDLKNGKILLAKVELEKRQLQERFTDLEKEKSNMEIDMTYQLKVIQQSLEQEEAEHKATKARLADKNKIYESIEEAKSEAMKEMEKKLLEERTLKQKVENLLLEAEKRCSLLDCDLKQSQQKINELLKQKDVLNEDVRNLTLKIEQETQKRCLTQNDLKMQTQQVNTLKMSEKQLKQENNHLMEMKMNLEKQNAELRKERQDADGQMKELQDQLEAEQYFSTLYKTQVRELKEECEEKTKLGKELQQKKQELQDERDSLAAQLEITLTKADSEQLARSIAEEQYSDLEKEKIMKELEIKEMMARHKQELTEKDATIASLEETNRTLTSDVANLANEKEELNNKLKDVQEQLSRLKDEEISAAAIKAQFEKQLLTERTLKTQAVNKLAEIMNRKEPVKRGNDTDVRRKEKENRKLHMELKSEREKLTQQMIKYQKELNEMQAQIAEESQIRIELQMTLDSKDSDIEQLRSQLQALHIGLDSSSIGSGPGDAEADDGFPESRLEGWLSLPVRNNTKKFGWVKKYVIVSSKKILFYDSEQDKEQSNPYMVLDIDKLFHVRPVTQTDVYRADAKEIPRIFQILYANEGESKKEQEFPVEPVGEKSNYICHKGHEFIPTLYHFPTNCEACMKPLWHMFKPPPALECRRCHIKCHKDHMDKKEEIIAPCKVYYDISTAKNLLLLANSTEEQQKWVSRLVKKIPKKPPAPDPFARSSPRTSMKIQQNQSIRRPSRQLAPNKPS
Sequence of Dual specificity protein kinase CLK3 (Homo sapiens) (P49761 whole entry, looked up): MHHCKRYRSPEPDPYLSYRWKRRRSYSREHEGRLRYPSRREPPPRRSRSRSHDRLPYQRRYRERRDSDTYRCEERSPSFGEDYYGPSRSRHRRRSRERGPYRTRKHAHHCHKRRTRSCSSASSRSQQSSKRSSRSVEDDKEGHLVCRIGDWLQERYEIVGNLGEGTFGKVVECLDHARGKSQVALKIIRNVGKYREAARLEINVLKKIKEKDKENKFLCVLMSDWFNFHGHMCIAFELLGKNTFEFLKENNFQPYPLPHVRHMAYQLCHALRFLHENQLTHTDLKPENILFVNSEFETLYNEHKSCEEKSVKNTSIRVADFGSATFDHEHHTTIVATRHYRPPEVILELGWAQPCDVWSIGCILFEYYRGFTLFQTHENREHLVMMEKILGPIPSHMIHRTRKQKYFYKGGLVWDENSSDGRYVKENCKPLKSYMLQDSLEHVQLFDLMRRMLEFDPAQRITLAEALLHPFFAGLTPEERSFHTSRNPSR
Sequence of Serine/threonine-protein kinase 24 (Homo sapiens) (Q9Y6E0 whole entry, looked up): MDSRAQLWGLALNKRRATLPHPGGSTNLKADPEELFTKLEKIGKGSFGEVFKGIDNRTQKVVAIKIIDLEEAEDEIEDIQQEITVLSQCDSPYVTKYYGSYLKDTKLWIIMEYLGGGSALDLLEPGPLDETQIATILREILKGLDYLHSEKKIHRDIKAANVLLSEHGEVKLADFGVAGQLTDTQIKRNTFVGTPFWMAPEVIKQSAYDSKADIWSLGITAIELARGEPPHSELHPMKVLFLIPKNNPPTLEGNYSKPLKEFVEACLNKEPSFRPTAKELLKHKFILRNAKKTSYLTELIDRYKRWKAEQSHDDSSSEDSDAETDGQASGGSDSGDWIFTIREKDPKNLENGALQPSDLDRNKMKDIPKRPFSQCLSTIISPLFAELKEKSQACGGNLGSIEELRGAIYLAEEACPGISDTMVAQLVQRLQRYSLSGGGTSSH
Sequence of Mitogen-activated protein kinase 6 (Homo sapiens) (Q16659 whole entry): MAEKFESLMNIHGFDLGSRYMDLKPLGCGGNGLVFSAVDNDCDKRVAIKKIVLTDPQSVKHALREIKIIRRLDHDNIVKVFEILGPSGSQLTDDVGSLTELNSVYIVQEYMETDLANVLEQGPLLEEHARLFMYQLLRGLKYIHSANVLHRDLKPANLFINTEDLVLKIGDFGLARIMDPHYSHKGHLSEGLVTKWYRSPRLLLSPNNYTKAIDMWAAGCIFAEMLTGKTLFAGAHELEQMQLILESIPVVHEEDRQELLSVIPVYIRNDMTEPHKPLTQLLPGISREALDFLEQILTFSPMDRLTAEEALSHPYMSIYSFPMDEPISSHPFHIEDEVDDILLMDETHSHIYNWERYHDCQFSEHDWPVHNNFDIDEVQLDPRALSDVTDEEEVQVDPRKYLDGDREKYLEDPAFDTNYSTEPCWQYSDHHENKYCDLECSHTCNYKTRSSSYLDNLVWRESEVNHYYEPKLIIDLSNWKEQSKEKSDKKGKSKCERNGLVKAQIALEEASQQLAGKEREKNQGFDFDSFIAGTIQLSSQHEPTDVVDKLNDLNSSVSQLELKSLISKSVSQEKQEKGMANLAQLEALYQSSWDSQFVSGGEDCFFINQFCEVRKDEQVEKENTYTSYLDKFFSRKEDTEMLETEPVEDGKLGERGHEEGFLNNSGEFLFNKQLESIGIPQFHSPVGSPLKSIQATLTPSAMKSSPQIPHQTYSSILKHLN
Sequence of Ephrin type-A receptor 3 (Homo sapiens) (P29320 whole entry): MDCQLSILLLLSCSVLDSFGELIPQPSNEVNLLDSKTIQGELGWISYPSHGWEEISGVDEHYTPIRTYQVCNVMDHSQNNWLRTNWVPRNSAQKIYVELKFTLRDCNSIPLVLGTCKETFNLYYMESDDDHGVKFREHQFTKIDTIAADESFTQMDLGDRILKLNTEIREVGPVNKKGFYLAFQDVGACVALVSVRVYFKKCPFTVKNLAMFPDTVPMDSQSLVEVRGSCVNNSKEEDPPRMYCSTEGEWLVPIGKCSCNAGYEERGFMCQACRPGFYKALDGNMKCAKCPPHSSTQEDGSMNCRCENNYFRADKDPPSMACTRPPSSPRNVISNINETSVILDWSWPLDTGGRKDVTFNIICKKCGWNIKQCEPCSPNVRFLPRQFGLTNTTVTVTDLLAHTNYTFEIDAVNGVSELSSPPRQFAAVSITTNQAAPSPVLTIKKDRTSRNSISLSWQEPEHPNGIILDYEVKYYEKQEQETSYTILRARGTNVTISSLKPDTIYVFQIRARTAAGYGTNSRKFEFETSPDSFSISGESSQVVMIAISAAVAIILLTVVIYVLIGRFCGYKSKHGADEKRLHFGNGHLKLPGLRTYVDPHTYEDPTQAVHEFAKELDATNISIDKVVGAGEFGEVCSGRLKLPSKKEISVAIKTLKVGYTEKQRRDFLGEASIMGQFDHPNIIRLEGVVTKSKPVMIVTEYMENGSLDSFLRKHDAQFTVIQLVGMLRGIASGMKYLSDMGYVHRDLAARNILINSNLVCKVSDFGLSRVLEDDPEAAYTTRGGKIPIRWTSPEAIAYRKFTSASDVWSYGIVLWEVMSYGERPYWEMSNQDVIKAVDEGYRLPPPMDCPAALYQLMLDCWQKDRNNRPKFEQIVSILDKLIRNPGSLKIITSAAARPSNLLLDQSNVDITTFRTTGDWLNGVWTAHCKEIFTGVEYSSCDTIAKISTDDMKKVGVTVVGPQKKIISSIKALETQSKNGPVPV
Sequence of Proto-oncogene tyrosine-protein kinase Src (Homo sapiens) (P12931 2-536 limits assumed): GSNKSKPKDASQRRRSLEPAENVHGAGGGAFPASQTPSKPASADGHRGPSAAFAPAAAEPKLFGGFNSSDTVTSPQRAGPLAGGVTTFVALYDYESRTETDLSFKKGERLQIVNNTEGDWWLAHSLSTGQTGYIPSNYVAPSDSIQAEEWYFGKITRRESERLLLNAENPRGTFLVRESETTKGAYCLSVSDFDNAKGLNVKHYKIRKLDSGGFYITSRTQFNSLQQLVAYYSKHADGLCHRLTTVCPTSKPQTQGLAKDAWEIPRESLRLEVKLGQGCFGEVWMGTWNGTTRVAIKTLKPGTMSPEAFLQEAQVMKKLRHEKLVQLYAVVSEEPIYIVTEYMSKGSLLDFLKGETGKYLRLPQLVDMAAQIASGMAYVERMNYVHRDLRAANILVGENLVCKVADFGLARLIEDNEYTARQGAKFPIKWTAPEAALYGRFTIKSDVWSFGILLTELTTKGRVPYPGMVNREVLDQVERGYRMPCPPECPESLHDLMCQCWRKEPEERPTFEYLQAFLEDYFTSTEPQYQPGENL

CC1=C(C#N)C(c2ccc3[nH]nc(C)c3c2)C(C#N)=C(C)N1 [BAY-474]
inactive: inhibition [1] 2% | inhibition [2] -8% | inhibition [3] 0% | inhibition (Mus musculus) 4% | inhibition [4] 4% | inhibition [5] 26% | inhibition [6] -6% | inhibition [7] -8% | inhibition [8] 11% | inhibition [9] 13% | inhibition [10] -4% | inhibition [11] 2% | inhibition [12] 10%

CC1=C(C#N)[C@@H](c2ccc3[nH]nc(C)c3c2)C(C#N)=C(c2ccc(Cl)cc2)N1 [BAY-827]
inactive: residual activity [13] 100% | residual activity [14] 94.6% | residual activity [15] 100% | residual activity [16] 100% | residual activity [17] 100% | residual activity [18] 62.2% | residual activity [19] 96.9% | residual activity [20] 84.6% | residual activity [21] 100% | residual activity [22] 100% | residual activity [23] 76.4% | residual activity [24] 90.6% | residual activity [25] 100% | residual activity [26] 100% | residual activity [27] 100% | residual activity [28] 78.8% | residual activity [29] 95.6% | residual activity [30] 100% | residual activity [31] 82.2% | residual activity [32] 97.9% | residual activity [33] 100% | residual activity [34] 96.4% | residual activity [35] 97.9% | residual activity [36] 91.9% | residual activity [37] 100% | residual activity [38] 100% | residual activity [39] 100% | residual activity [40] 100% | residual activity [41] 100% | residual activity [42] 100% | residual activity [43] 64.7% | residual activity [44] 95.4%
